According to paper PMC5540273, “Progress towards a public chemogenomic set for protein kinases and a call for contributions” (PLoS ONE, 2017):

How the values were obtained:
Assay in all cases: KINOMEscan competition binding
ABL2 = ABL2 (Homo sapiens, UniProt P42684); conditions: read-out: %Inh ABL2
CAMKK1 = CAMKK1 (Homo sapiens, UniProt Q8N5S9); conditions: read-out: %Inh CAMKK1
CSNK1D = CSNK1D (Homo sapiens, UniProt P48730); conditions: read-out: %Inh CSNK1D
DAPK3 = DAPK3 (Homo sapiens, UniProt O43293); conditions: read-out: %Inh DAPK3
DCAMKL2 = biological target: T1, DCAMKL2 (Homo sapiens, UniProt Q8N568); conditions: read-out: %Inh DCAMKL2
T1 sequence (Q8N568 1-766): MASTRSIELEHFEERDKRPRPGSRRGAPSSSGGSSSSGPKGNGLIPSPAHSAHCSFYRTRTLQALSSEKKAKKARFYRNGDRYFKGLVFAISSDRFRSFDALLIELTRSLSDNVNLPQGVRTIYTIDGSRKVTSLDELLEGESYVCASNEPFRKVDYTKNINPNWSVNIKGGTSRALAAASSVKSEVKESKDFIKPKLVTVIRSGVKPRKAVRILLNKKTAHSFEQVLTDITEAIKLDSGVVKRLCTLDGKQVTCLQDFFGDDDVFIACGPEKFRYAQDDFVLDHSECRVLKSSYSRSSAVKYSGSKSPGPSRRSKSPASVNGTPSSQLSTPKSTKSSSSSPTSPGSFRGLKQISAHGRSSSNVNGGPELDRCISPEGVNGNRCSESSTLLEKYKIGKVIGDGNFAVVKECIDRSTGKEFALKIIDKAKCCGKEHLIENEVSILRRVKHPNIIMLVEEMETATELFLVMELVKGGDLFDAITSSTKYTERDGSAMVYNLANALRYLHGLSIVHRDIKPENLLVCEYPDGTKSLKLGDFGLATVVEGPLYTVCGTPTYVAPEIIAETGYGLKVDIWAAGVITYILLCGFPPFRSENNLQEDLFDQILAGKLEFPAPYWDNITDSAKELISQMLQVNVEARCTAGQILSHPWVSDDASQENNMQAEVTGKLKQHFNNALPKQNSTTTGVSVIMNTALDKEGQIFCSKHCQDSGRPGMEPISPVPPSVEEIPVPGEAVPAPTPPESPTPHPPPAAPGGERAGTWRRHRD

EPHA7 = EPHA7 (Homo sapiens, UniProt Q15375); conditions: read-out: %Inh EPHA7
Chain of EPHA7 (Q15375 28-998): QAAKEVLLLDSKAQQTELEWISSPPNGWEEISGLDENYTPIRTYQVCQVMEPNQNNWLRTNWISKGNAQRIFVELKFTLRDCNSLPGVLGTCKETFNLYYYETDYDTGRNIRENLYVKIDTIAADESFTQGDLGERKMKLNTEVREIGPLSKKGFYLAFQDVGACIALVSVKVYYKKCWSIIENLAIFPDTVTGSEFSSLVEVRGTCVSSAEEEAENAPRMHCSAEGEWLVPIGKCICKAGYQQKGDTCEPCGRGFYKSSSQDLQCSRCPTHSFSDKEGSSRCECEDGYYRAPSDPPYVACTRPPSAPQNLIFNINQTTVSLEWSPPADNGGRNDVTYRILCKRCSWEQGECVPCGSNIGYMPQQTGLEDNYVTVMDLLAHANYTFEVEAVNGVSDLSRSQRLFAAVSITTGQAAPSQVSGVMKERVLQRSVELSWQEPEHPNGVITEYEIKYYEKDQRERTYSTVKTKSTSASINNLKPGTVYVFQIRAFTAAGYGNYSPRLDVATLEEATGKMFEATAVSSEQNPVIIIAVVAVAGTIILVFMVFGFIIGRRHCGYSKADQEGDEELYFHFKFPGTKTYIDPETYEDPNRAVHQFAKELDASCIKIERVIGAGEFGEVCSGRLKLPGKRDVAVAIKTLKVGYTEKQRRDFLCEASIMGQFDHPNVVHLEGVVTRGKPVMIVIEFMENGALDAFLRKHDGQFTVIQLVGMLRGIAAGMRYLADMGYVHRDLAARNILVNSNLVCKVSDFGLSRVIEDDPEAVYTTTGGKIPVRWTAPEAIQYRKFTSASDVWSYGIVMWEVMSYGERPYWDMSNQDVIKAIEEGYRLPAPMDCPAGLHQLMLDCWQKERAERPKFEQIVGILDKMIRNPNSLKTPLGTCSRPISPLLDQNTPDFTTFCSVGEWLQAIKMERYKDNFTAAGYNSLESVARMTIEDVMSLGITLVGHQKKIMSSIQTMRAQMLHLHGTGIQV

EPHB6 = biological target: T2, EPHB6 (Homo sapiens, UniProt O15197); conditions: read-out: %Inh EPHB6
T2 sequence (O15197 32-1021): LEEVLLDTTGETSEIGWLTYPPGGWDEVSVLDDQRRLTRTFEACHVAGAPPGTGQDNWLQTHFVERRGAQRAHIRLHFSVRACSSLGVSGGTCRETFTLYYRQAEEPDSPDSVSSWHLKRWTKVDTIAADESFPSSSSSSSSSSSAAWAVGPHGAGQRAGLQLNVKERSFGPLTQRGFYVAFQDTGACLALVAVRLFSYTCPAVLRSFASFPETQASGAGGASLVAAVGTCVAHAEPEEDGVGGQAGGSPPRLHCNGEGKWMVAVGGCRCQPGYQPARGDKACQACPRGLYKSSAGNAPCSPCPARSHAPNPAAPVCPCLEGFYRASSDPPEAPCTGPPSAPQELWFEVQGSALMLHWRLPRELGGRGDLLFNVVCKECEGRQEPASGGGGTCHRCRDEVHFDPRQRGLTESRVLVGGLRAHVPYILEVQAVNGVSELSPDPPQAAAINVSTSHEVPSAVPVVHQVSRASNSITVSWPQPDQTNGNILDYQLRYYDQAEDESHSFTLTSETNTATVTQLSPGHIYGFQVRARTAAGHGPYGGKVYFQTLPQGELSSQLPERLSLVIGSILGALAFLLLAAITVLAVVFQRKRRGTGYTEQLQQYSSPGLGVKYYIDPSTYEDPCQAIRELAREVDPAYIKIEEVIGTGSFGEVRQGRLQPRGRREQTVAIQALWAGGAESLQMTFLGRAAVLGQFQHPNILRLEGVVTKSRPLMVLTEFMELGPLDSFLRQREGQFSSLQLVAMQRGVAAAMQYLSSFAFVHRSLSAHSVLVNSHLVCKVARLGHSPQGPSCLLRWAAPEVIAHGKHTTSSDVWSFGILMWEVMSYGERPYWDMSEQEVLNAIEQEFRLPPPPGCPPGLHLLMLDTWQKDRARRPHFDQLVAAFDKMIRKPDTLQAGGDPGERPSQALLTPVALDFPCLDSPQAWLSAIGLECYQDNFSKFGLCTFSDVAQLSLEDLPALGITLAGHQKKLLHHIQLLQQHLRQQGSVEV

ERK3 = ERK3 (Homo sapiens, UniProt Q16659); conditions: read-out: %Inh ERK3
Chain of ERK3 (Q16659 whole entry): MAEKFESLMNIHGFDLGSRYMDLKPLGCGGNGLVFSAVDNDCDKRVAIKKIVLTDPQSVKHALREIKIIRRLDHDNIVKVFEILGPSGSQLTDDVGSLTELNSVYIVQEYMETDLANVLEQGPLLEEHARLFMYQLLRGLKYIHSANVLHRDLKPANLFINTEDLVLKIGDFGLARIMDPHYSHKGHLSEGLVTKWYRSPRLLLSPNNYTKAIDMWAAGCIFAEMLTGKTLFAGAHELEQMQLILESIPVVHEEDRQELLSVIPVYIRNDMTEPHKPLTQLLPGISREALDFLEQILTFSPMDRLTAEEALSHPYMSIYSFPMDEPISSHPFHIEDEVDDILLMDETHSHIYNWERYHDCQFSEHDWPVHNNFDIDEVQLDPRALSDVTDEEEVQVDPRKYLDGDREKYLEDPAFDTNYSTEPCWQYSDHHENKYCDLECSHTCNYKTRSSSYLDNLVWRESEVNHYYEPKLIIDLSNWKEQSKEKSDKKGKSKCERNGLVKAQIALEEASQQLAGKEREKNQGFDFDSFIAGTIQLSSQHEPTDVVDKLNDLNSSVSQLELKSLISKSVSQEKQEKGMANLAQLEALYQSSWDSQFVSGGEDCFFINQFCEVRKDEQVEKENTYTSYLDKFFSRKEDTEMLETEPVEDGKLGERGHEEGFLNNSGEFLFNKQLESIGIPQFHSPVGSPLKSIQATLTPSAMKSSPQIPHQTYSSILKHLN

ERK4 = ERK4 (Homo sapiens, UniProt P31152); conditions: read-out: %Inh ERK4
Chain of ERK4 (P31152 whole entry): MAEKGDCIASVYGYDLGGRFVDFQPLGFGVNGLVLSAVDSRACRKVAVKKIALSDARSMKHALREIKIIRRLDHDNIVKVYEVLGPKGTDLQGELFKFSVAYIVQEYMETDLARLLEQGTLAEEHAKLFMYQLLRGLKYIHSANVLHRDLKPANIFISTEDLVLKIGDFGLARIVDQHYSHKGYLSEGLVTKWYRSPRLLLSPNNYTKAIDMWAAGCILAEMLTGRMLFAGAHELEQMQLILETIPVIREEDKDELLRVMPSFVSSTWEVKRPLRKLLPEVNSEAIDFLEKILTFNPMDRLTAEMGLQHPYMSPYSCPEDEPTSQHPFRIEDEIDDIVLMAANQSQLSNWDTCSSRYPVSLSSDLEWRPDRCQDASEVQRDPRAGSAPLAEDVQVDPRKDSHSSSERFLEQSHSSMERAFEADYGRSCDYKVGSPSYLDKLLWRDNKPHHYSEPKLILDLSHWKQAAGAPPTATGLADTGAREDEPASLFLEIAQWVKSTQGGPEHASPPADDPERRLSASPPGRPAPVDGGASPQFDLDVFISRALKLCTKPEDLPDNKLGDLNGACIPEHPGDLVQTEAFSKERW

JNK3 = JNK3 (Homo sapiens, UniProt P53779); conditions: read-out: %Inh JNK3
LYN = LYN (Homo sapiens, UniProt P07948); conditions: read-out: %Inh LYN
Chain of LYN (P07948 whole entry): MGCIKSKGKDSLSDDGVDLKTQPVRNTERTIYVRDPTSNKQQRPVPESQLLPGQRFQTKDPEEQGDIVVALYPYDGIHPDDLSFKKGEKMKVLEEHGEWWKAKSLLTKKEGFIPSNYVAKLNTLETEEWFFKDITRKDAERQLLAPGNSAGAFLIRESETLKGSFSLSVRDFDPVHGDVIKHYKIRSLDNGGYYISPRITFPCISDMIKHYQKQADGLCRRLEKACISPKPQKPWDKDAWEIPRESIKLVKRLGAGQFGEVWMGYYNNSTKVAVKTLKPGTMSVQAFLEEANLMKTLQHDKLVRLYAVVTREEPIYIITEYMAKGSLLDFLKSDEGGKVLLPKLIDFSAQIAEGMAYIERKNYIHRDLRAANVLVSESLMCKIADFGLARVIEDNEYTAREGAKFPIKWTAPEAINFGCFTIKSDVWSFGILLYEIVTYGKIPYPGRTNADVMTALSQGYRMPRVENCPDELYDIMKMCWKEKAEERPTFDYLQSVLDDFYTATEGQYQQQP

Chain of CAMKK1 (Q8N5S9 whole entry): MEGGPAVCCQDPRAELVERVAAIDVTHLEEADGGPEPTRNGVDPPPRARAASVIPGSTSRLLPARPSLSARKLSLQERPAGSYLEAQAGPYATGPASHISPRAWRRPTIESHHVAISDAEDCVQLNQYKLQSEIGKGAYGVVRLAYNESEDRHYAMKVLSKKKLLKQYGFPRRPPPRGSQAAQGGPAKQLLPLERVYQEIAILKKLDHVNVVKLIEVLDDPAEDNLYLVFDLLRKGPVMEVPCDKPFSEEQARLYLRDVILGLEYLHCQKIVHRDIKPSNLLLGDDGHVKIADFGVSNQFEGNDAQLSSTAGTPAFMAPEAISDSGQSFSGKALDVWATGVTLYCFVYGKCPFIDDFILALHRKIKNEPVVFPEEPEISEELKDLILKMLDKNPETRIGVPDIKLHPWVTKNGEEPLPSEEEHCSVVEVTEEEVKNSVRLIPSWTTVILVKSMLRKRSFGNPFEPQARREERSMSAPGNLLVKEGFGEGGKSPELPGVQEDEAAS
Chain of CSNK1D (P48730 whole entry): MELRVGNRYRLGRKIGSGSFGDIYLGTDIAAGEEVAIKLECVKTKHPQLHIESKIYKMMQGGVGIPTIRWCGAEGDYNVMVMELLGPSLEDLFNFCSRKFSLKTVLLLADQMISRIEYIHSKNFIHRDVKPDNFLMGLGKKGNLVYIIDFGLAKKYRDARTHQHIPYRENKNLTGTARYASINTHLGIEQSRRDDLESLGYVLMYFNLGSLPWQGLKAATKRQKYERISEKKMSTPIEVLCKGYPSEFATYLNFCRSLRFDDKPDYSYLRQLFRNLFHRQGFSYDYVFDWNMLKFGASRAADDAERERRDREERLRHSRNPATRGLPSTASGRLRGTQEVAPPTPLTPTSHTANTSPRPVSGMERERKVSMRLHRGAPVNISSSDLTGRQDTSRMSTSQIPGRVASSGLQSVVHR
Chain of ABL2 (P42684 whole entry): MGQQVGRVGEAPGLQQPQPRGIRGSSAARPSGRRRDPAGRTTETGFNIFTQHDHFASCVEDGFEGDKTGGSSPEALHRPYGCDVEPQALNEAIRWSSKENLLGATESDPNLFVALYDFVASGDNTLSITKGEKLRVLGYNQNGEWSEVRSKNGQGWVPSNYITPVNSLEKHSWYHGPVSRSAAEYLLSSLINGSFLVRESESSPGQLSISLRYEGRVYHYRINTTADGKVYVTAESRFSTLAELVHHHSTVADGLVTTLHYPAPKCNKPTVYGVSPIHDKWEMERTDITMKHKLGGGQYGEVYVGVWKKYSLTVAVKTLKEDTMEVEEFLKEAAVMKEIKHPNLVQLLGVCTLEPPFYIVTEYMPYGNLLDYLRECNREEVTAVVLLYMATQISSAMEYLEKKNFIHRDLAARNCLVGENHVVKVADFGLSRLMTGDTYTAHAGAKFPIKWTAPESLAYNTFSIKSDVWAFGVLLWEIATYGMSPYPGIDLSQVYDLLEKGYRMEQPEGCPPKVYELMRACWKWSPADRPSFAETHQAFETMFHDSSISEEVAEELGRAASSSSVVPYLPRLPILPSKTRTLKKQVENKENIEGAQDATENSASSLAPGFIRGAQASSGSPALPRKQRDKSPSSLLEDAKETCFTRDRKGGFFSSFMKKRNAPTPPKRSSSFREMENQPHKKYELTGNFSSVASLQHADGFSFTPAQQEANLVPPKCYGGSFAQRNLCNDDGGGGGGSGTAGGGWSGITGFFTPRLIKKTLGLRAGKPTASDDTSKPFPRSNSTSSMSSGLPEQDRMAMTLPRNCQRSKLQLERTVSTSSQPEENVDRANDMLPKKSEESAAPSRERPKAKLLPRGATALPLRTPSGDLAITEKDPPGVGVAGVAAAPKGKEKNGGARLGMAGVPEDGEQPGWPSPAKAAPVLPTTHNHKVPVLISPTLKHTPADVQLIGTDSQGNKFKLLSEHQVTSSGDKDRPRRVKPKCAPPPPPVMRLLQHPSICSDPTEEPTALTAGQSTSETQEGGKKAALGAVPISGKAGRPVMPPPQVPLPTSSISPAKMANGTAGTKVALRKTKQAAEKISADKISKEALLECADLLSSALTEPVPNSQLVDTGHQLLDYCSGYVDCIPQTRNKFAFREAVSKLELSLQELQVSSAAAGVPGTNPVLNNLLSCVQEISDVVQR

Question: Which inhibition at 1 µM (ABL2) does the source give for COc1cccc(OC)c1C(=O)Nc1cccc(-c2nn3ccccc3c2-c2ccnc(Nc3cccc(F)c3)n2)c1 [UNC10225310A] here?
Answer: The inhibition at 1 µM was 100%.

Question: What about the inhibition at 1 µM (CAMKK1) of the same molecule?
Answer: The inhibition at 1 µM was 4%.

Question: What about the inhibition at 1 µM (CSNK1D) of the same molecule?
Answer: Its inhibition at 1 µM is 9%.

Question: What about the inhibition at 1 µM (DAPK3) of the same molecule?
Answer: The inhibition at 1 µM was 0%.

Question: And the inhibition at 1 µM (DCAMKL2)?
Answer: The inhibition at 1 µM was 0%.

Question: And the inhibition at 1 µM (EPHA7)?
Answer: Its inhibition at 1 µM is 14%.

Question: And the inhibition at 1 µM (EPHB6)?
Answer: The inhibition at 1 µM was 42%.

Question: What about the inhibition at 1 µM (ERK3) of the same molecule?
Answer: The inhibition at 1 µM was 1%.

Question: And the inhibition at 1 µM (ERK4)?
Answer: The inhibition at 1 µM was 9%.

Question: What about the inhibition at 1 µM (JNK3) of the same molecule?
Answer: The inhibition at 1 µM was 0%.

Question: What about the inhibition at 1 µM (LYN) of the same molecule?
Answer: The inhibition at 1 µM was 8%.

Question: With Cc1ccc(NC(=O)Nc2cccc(C(F)(F)F)c2)cc1 [UNC10225187A] as the molecule, how does the inhibition at 1 µM (ABL2) read?
Answer: Its inhibition at 1 µM is 3%.

Question: And the inhibition at 1 µM (CAMKK1)?
Answer: Its inhibition at 1 µM is 9%.

Question: And the inhibition at 1 µM (CSNK1D)?
Answer: Its inhibition at 1 µM is 0%.

Question: And the inhibition at 1 µM (DAPK3)?
Answer: The inhibition at 1 µM was 24%.

Question: What about the inhibition at 1 µM (DCAMKL2) of the same molecule?
Answer: Its inhibition at 1 µM is 0%.

Question: And the inhibition at 1 µM (EPHA7)?
Answer: Its inhibition at 1 µM is 2%.

Question: And the inhibition at 1 µM (EPHB6)?
Answer: Its inhibition at 1 µM is 21%.

Question: And the inhibition at 1 µM (ERK3)?
Answer: Its inhibition at 1 µM is 0%.

Question: What about the inhibition at 1 µM (ERK4) of the same molecule?
Answer: Its inhibition at 1 µM is 0%.

Question: What about the inhibition at 1 µM (JNK3) of the same molecule?
Answer: The inhibition at 1 µM was 46%.

Question: And the inhibition at 1 µM (LYN)?
Answer: Its inhibition at 1 µM is 0%.

Question: What does the source list for O=c1cc(N2CCOCC2)nc2n(Cc3cccc(Cl)c3Cl)c(C3CC3)nn12 [UNC10225469A]?
Answer: inhibition at 1 µM (ABL2): 5%; inhibition at 1 µM (CAMKK1): 3%; inhibition at 1 µM (CSNK1D): 7%; inhibition at 1 µM (DAPK3): 6%; inhibition at 1 µM (DCAMKL2): 7%; inhibition at 1 µM (EPHA7): 0%; inhibition at 1 µM (EPHB6): 33%; inhibition at 1 µM (ERK3): 0%; inhibition at 1 µM (ERK4): 0%; inhibition at 1 µM (JNK3): 0%; inhibition at 1 µM (LYN): 0%

Question: For CS(=O)(=O)Cc1ccc(Nc2nccc(-c3c(-c4cccc(NC(=O)C5CCCCC5)c4)nn4ncccc34)n2)cc1 [UNC10225159A], which inhibition at 1 µM (ABL2) is on record?
Answer: Its inhibition at 1 µM is 5%.

Question: What about the inhibition at 1 µM (CAMKK1) of the same molecule?
Answer: The inhibition at 1 µM was 0%.

Question: And the inhibition at 1 µM (CSNK1D)?
Answer: Its inhibition at 1 µM is 0%.

Question: What about the inhibition at 1 µM (DAPK3) of the same molecule?
Answer: Its inhibition at 1 µM is 0%.

Question: What about the inhibition at 1 µM (DCAMKL2) of the same molecule?
Answer: Its inhibition at 1 µM is 15%.

Question: And the inhibition at 1 µM (EPHA7)?
Answer: The inhibition at 1 µM was 15%.

Question: What about the inhibition at 1 µM (EPHB6) of the same molecule?
Answer: Its inhibition at 1 µM is 42%.

Question: And the inhibition at 1 µM (ERK3)?
Answer: Its inhibition at 1 µM is 0%.

Question: And the inhibition at 1 µM (ERK4)?
Answer: The inhibition at 1 µM was 3%.

Question: And the inhibition at 1 µM (JNK3)?
Answer: Its inhibition at 1 µM is 36%.

Question: And the inhibition at 1 µM (LYN)?
Answer: Its inhibition at 1 µM is 16%.

Question: With Cn1cc(-c2cnc(N)c3c(-c4ccc5c(c4)CCN5C(=O)Cc4ccccc4)csc23)cn1 [UNC10225012A] as the molecule, how does the inhibition at 1 µM (ABL2) read?
Answer: Its inhibition at 1 µM is 81%.

Question: What about the inhibition at 1 µM (CAMKK1) of the same molecule?
Answer: Its inhibition at 1 µM is 11%.

Question: And the inhibition at 1 µM (CSNK1D)?
Answer: The inhibition at 1 µM was 0%.

Question: What about the inhibition at 1 µM (DAPK3) of the same molecule?
Answer: The inhibition at 1 µM was 7%.

Question: And the inhibition at 1 µM (DCAMKL2)?
Answer: Its inhibition at 1 µM is 0%.

Question: And the inhibition at 1 µM (EPHA7)?
Answer: The inhibition at 1 µM was 6%.

Question: What about the inhibition at 1 µM (EPHB6) of the same molecule?
Answer: Its inhibition at 1 µM is 98.3%.

Question: What about the inhibition at 1 µM (ERK3) of the same molecule?
Answer: The inhibition at 1 µM was 0%.

Question: What about the inhibition at 1 µM (ERK4) of the same molecule?
Answer: The inhibition at 1 µM was 0%.

Question: What about the inhibition at 1 µM (JNK3) of the same molecule?
Answer: The inhibition at 1 µM was 0%.

Question: And the inhibition at 1 µM (LYN)?
Answer: Its inhibition at 1 µM is 65%.
